Experimental data: ChEMBL document CHEMBL5352434, “Design, synthesis, and biological evaluation of ocotillol derivatives fused with 2-aminothiazole via A-ring as modulators of P-glycoprotein-mediated multidrug resistance” (Eur J Med Chem, 2022)
pIC50: −log10 of the molar value. Activity calls are given as the source filed them. The calls are words filed in the database; no cut-off is given here.

Columns and labels:
[1] = Cytotoxicity against multi-drug resistance human KBV cells assessed as cell survival rate at 5 uM incubated for 72 hrs by MTT assay; type: functional; settings: read-out: Survival
[2] = Cytotoxicity against multi-drug resistance human KBV cells assessed as cell survival rate at 5 uM in presence of 100 nM Paclitaxel incubated for 72 hrs by MTT assay; type: functional; settings: read-out: Survival
[3] = Cytotoxicity against multi-drug resistance human KBV cells assessed as cell survival rate at 10 uM incubated for 72 hrs by MTT assay; type: functional; settings: read-out: Survival
[4] = Cytotoxicity against multi-drug resistance human KBV cells assessed as cell survival rate at 10 uM in presence of 100 nM Paclitaxel incubated for 72 hrs by MTT assay; type: functional; settings: read-out: Survival
[5] = Cytotoxicity against multi-drug resistance human KBV cells assessed as cell survival incubated for 72 hrs by MTT assay; type: functional, cell-based
[6] = Cytotoxicity against multi-drug resistance human KBV cells assessed as cell survival in presence of 5 uM (20S,24R)-Epoxy-3-beta-N-glycyl-[3,2-b]thiazole-dammarane-12-beta,25-diol incubated for 72 hrs by MTT assay; type: functional, cell-based
[7] = Cytotoxicity against multi-drug resistance human KBV cells assessed as cell survival in presence of 10 uM (20S,24R)-Epoxy-3-beta-N-glycyl-[3,2-b]thiazole-dammarane-12-beta,25-diol incubated for 72 hrs by MTT assay; type: functional, cell-based
[8] = Cytotoxicity against multi-drug resistance human KBV cells assessed as cell survival in presence of Verapamil incubated for 72 hrs by MTT assay; type: functional, cell-based
[9] = Cytotoxicity against multi-drug resistance human KBV cells assessed as cell survival in presence of Tariquidar incubated for 72 hrs by MTT assay; type: functional, cell-based
KBV = test: Antitumor activity against human MDR KBV cells xenografted in BALB/c nude mouse assessed as change in tumor volume at 30 mg/kg every 3 days for 18 days; type: functional, organism-based; settings: time 18.0 day
[10] = Toxicity in BALB/c nude mouse xenografted with human MDR KBV cells assessed as change in body weight administered at 30 mg/kg every 3 days for 18 days; type: organism-based; settings: in vivo, 432 h, time 18 day

SMILES | viability at 5 µM [1] | viability at 5 µM [2] | viability at 10 µM [3] | viability at 10 µM [4] | pIC50 [5] | pIC50 [6] | pIC50 [7] | pIC50 [8] | pIC50 [9] | Activity (KBV) | Activity [10]
C[C@H](N)C(=O)Nc1nc2c(s1)C[C@]1(C)[C@H]3C[C@@H](O)[C@@H]4[C@@H]([C@]5(C)CC[C@H](C(C)(C)O)O5)CC[C@@]4(C)[C@]3(C)CC[C@H]1C2(C)C | 91.4% | 67.3% | 103% | 41% | – | – | – | – | – | – | –
CC(C)(O)[C@H]1CC[C@@](C)([C@H]2CC[C@]3(C)[C@@H]2[C@H](O)C[C@@H]2[C@@]4(C)Cc5sc(NC(=O)CCCN)nc5C(C)(C)[C@@H]4CC[C@]23C)O1 | 34.7% | 19.8% | 14.9% | 12.6% | – | – | – | – | – | – | –
CC(C)(O)[C@H]1CC[C@@](C)([C@H]2CC[C@]3(C)[C@H]2[C@H](O)C[C@@H]2[C@@]4(C)Cc5sc(NC(=O)[C@H](N)Cc6c[nH]c7ccccc67)nc5C(C)(C)[C@@H]4CC[C@]23C)O1 | 91.9% | 69.5% | 93.9% | 55.6% | – | – | – | – | – | – | –
CC(C)(O)[C@@H]1CC[C@@](C)([C@H]2CC[C@]3(C)[C@@H]2[C@H](O)C[C@@H]2[C@@]4(C)Cc5sc(NC(=O)CCCCCN)nc5C(C)(C)[C@@H]4CC[C@]23C)O1 | 93.5% | 72.2% | 72.2% | 67.2% | – | – | – | – | – | – | –
CC(C)(O)[C@@H]1CC[C@@](C)([C@H]2CC[C@]3(C)[C@@H]2[C@H](O)C[C@@H]2[C@@]4(C)Cc5sc(NC(=O)[C@H](N)Cc6c[nH]c7ccccc67)nc5C(C)(C)[C@@H]4CC[C@]23C)O1 | 92.8% | 94.4% | 95.7% | 76.3% | – | – | – | – | – | – | –
CC(C)[C@H](N)C(=O)Nc1nc2c(s1)C[C@]1(C)[C@H]3C[C@@H](O)[C@H]4[C@@H]([C@]5(C)CC[C@@H](C(C)(C)O)O5)CC[C@@]4(C)[C@]3(C)CC[C@@]1(O)C2(C)C | 92.5% | 98.6% | 100% | 90.7% | – | – | – | – | – | – | –
CC(C)(O)[C@H]1CC[C@@](C)([C@H]2CC[C@]3(C)[C@@H]2[C@H](O)C[C@@H]2[C@@]4(C)Cc5sc(NC(=O)[C@H]6CCCN6)nc5C(C)(C)[C@@H]4CC[C@]23C)O1 | 84.1% | 39.5% | 59.5% | 22.9% | – | – | – | – | – | – | –
CC(C)(O)[C@H]1CC[C@@](C)([C@H]2CC[C@]3(C)[C@@H]2[C@H](O)C[C@@H]2[C@@]4(C)CC[C@H](O)C(C)(C)[C@@H]4CC[C@]23C)O1 | – | – | – | 86.6% | – | – | – | – | – | – | –
CC(C)(O)[C@@H]1CC[C@@](C)([C@H]2CC[C@]3(C)[C@@H]2[C@H](O)C[C@@H]2[C@@]4(C)Cc5sc(NC(=O)CN)nc5C(C)(C)[C@@H]4CC[C@]23C)O1 | 94.6% | 59.4% | 65.4% | 30.2% | – | – | – | – | – | – | –
CC(C)(O)[C@H]1CC[C@@](C)([C@H]2CC[C@]3(C)[C@@H]2[C@H](O)C[C@@H]2[C@@]4(C)Cc5sc(NC(=O)CCCCCCCCCCN)nc5C(C)(C)[C@@H]4CC[C@]23C)O1 | 43.6% | 17.5% | 12.4% | 11.4% | – | – | – | – | – | – | –
CC(C)(O)[C@@H]1CC[C@@](C)([C@H]2CC[C@]3(C)[C@@H]2[C@H](O)C[C@@H]2[C@@]4(C)Cc5sc(N)nc5C(C)(C)[C@@H]4CC[C@]23C)O1 | 112% | 68.7% | 80.6% | 48.6% | – | – | – | – | – | – | –
CC(C)[C@H](N)C(=O)Nc1nc2c(s1)C[C@]1(C)[C@H]3C[C@@H](O)[C@H]4[C@@H]([C@]5(C)CC[C@H](C(C)(C)O)O5)CC[C@@]4(C)[C@]3(C)CC[C@H]1C2(C)C | 95.2% | 91.6% | 92.7% | 54.2% | – | – | – | – | – | – | –
CC(C)(O)[C@H]1CC[C@@](C)([C@H]2CC[C@]3(C)[C@@H]2[C@H](O)C[C@@H]2[C@@]4(C)Cc5sc(N)nc5C(C)(C)[C@@H]4CC[C@]23C)O1 | 104% | 33.7% | 73.9% | 18.2% | – | – | – | – | – | – | –
CC(C)(O)[C@@H]1CC[C@@](C)([C@H]2CC[C@]3(C)[C@@H]2[C@H](O)C[C@@H]2[C@@]4(C)Cc5sc(NC(=O)[C@H](N)Cc6ccccc6)nc5C(C)(C)[C@@H]4CC[C@]23C)O1 | 103% | 101% | 96% | 50.2% | – | – | – | – | – | – | –
CC(C)(O)[C@H]1CC[C@@](C)([C@H]2CC[C@]3(C)[C@@H]2[C@H](O)C[C@@H]2[C@@]4(C)Cc5sc(NC(=O)CCCCCCCN)nc5C(C)(C)[C@@H]4CC[C@]23C)O1 | 38.3% | 23.6% | 23.5% | 15% | – | – | – | – | – | – | –
CC(C)(O)[C@@H]1CC[C@@](C)([C@H]2CC[C@]3(C)[C@@H]2[C@H](O)C[C@@H]2[C@@]4(C)Cc5sc(NC(=O)CCCCCCCCCCN)nc5C(C)(C)[C@@H]4CC[C@]23C)O1 | 18.4% | 18.1% | 17.5% | 16.4% | – | – | – | – | – | – | –
CC(=O)O[C@H]1C(=O)[C@@]2(C)[C@H]([C@H](OC(=O)c3ccccc3)[C@]3(O)C[C@H](OC(=O)[C@H](O)[C@@H](NC(=O)c4ccccc4)c4ccccc4)C(C)=C1C3(C)C)[C@]1(OC(C)=O)CO[C@@H]1C[C@@H]2O [PACLITAXEL] | – | – | – | 99.3% | 6.10 | 7.23 | 8.66 | 8.02 | 8.67 | inactive | Non-Toxic
CC(C)(O)[C@@H]1CC[C@@](C)([C@H]2CC[C@]3(C)[C@@H]2[C@H](O)C[C@@H]2[C@@]4(C)Cc5sc(NC(=O)[C@H]6CCCN6)nc5C(C)(C)[C@@H]4CC[C@]23C)O1 | 94.6% | 69.8% | 93.3% | 48.1% | – | – | – | – | – | – | –
CC(C)(O)[C@@H]1CC[C@@](C)([C@H]2CC[C@]3(C)[C@@H]2[C@H](O)C[C@@H]2[C@@]4(C)Cc5sc(NC(=O)CCCN)nc5C(C)(C)[C@@H]4CC[C@]23C)O1 | 106% | 90% | 67.2% | 57% | – | – | – | – | – | – | –
C[C@H](N)C(=O)Nc1nc2c(s1)C[C@]1(C)[C@H]3C[C@@H](O)[C@@H]4[C@@H]([C@]5(C)CC[C@@H](C(C)(C)O)O5)CC[C@@]4(C)[C@]3(C)CC[C@H]1C2(C)C | 95.7% | 77.4% | 97.4% | 46% | – | – | – | – | – | – | –
CC(C)(O)[C@H]1CC[C@@](C)([C@H]2CC[C@]3(C)[C@@H]2[C@H](O)C[C@@H]2[C@@]4(C)Cc5sc(NC(=O)CCCCCN)nc5C(C)(C)[C@@H]4CC[C@]23C)O1 | 35.3% | 21.6% | 30.3% | 12.5% | – | – | – | – | – | – | –
CC[C@]1(O)C[C@H]2CN(CCc3c([nH]c4ccccc34)[C@@](C(=O)OC)(c3cc4c(cc3OC)N(C=O)[C@H]3[C@@](O)(C(=O)OC)[C@H](OC(C)=O)[C@]5(CC)C=CCN6CC[C@]43[C@@H]65)C2)C1 [VINCRISTINE] | – | – | – | – | 6.25 | 7.86 | 8.93 | 8.79 | 8.82 | – | –
CC(C)C[C@H](N)C(=O)Nc1nc2c(s1)C[C@]1(C)[C@H]3C[C@@H](O)[C@@H]4[C@@H]([C@]5(C)CC[C@@H](C(C)(C)O)O5)CC[C@@]4(C)[C@]3(C)CC[C@H]1C2(C)C | 89.3% | 71.8% | 98.1% | 50.9% | – | – | – | – | – | – | –
CC(C)(O)[C@@H]1CC[C@@](C)([C@H]2CC[C@]3(C)[C@@H]2[C@H](O)C[C@@H]2[C@@]4(C)Cc5sc(NC(=O)CCCCCCCN)nc5C(C)(C)[C@@H]4CC[C@]23C)O1 | 44.7% | 29% | 16.5% | 17.3% | – | – | – | – | – | – | –
CC(C)C[C@H](N)C(=O)Nc1nc2c(s1)C[C@]1(C)[C@H]3C[C@@H](O)[C@H]4[C@@H]([C@]5(C)CC[C@H](C(C)(C)O)O5)CC[C@@]4(C)[C@]3(C)CC[C@H]1C2(C)C | 92.8% | 90.4% | 89% | 32.6% | – | – | – | – | – | – | –
O=C1c2c(O)ccc(O)c2C(=O)c2c(NCCNCCO)ccc(NCCNCCO)c21 [MITOXANTRONE] | – | – | – | – | 6.53 | 6.78 | 7.21 | 7.01 | 7.05 | – | –
CC(C)(O)[C@H]1CC[C@@](C)([C@H]2CC[C@]3(C)[C@@H]2[C@H](O)C[C@@H]2[C@@]4(C)Cc5sc(NC(=O)[C@H](N)Cc6ccccc6)nc5C(C)(C)[C@@H]4CC[C@]23C)O1 | 100% | 54.1% | 101% | 39.1% | – | – | – | – | – | – | –
CC(C)(O)[C@@H]1CC[C@@](C)([C@H]2CC[C@]3(C)[C@@H]2[C@H](O)C[C@@H]2[C@@]4(C)CC[C@H](O)C(C)(C)[C@@H]4CC[C@]23C)O1 | – | – | – | 86.5% | – | – | – | – | – | – | –
